Laboratory results published in article PMC3626250, “Effects of Borneol on Pharmacokinetics and Tissue Distribution of Notoginsenoside R1 and Ginsenosides Rg1 and Re in Panax notoginseng in Rabbits” (Journal of Analytical Methods in Chemistry, 2013).
Like-named read-outs stand apart in the source and are kept apart here.

Tests used:
[1] = Stability in plasma samples and tissue homogenates of rabbits; type: physicochemical; details: kidney homogenate
Experimental: The precision of the assay was determined for the quality control (QC) plasma and tissue […] Intraday precision and accuracy were determined via repeated analysis of the QC plasma and tissue samples within one day (n = 5). Interday precision and accuracy were determined via repeated analysis on five consecutive days. The concentration of each sample was determined using the prepared calibration curve and analyzed on the same day. All stabilities were evaluated at different concentration levels. Short-term stability of NGR1, GRg1, and GRe were assessed by analyzing QC samples kept at 4°C for 4–24 h. Freeze-thaw stability was evaluated at three consecutive freeze-thaw cycles. Long-term stability was studied by analyzing samples during a period of 8 weeks of storage at −70°C.
The stability studies were performed by evaluating small variations in three different conditions.

[2] = test system: vinblastine-selected Caco-2 cells; experiment: Transport studies across Caco-2 monolayers (P app, efflux ratio); type: in vitro ADME
Experimental: Medium was replaced every 2-3 days. […] The vinblastine-selected Caco-2 cells were cultivated in the presence of 10 nM vinblastine to induce P-glycoprotein (P-gp) expression. […] Prior to the transport study, cytotoxicity of NGR1, GRg1, GRe, and Borneol toward Caco-2 cells was determined using MTT assays.
In transport studies, vinblastine-selected Caco-2 cells were seeded on polycarbonate filter of transwells for 18–21 days before starting transport study, and the monolayers with the transepithelial electrical resistance (TEER) values greater than 300 Ωcm^2 were used. Caco-2 monolayers were rinsed twice with Hanks' balanced salt solution (HBSS) and preincubated in HBSS at 37°C for 30 min before starting experiments. To start the experiments, 500 μM of NGR1, GRg1, and GRe in final concentrations were added to the donor side with or without 200 μM Borneol and then incubated at 37°C. […] After each sampling, 0.1 mL of HBSS was added to the receiver chamber to maintain a constant volume. All the experiments were performed five times in duplicate. The collected samples were stored at −20°C until HPLC analysis. During the above transport studies, the TEER values were also monitored before and at the end of each experiment. Apparent permeability coefficients (P app) were then calculated according to the following equation: (1) Papp=(dC/dt×V)/(A×C0), where dC/dt is the rate of the test compound appearing in the receiver chamber, V is the volume of the solution in the receiver chamber, A is the cell monolayer surface area, and C 0 is the initial concentration of the test compound added in the donor chamber.
The efflux ratio (Er) was calculated using the following equation: (2) Er=Papp(basolateral-apical)/Papp(apical-basolateral).

[3] = Tissue distribution study in rabbits after oral Panax notoginseng extract with or without Borneol; type: in vivo, New Zealand rabbits; details: New Zealand, rabbit; for Kp at 1 h: oral, Borneol combined with Panax notoginseng; for concentration at 0.5 h / concentration at 1 h / concentration at 3 h: po; for concentration at 3 h: 3 mL·kg^−1, 3.0 h
Experimental: Frozen plasma and tissue samples were thawed in a water bath at 37°C and were then vortexed followed by centrifuging at 5000 r·min^−1 for 5 min. An aliquot of 1.0 mL of the supernatant from each sample was loaded onto C18 Bond Elute Solid phase extraction (SPE) cartridges (1000 mg, 1 cc reservoir, Varian, Harbor City, CA, USA) pretreated with 2.0 mL hexane, isopropanol, methanol, and water, sequentially. The SPE cartridges were then washed with 1.0 mL water, 20% methanol/water solution, 40% methanol/water solution, and 60% methanol/water solution, sequentially. Finally, analytes were eluted twice with 1.0 mL of 70% methanol/water solution. The eluant was evaporated to dryness under nitrogen. The residues were then reconstituted in 1.0 mL mobile phase. An aliquot of 10 μL was injected into the LC-MS system.
One group of rabbits (n = 18) was orally administered a dose of 3.0 mL·kg^−1 Panax notoginseng extract, while another group of rabbits (n = 18) was orally given 3.0 mL·kg^−1 Panax notoginseng extract combined with Borneol. At 0.5, 1, and 3 h after administration, blood samples were collected from the central ear artery of six rabbits from each group, and the heart, liver, lung, kidney, and brain were immediately removed after animals were sacrificed by decapitation. An accurately weighed amount of tissue (1 g) was collected to be rinsed, dried, minced, and homogenized (400 r·min^−1) in normal saline (1.5 mL). All of the samples were stored at −70°C and were processed prior to analysis with the proposed method as described in Section 2.6.

CC(C)=CCC[C@](C)(O[C@@H]1O[C@H](CO)[C@@H](O)[C@H](O)[C@H]1O)[C@H]1CC[C@]2(C)[C@@H]1[C@H](O)C[C@@H]1[C@@]3(C)CC[C@H](O)C(C)(C)[C@@H]3[C@@H](O[C@@H]3O[C@H](CO)[C@@H](O)[C@H](O)[C@H]3O)C[C@]12C [GRg1, ginsenoside Rg1]
Remaining, Short-term stability ([1]; QC 0.4 μg·mL^−1, 4°C for 4–24 h): 91.5 ± 6.5% | Remaining, Long-term stability ([1]; QC 0.4 μg·mL^−1, 8 weeks at −70°C): 90.8 ± 6.1% | Remaining, Freeze-thaw stability ([1]; QC 0.4 μg·mL^−1, three freeze-thaw cycles): 90.5 ± 7.8% | Remaining, Short-term stability ([1]; QC 3.0 μg·mL^−1, 4°C for 4–24 h): 95.9 ± 4.5% | Remaining, Long-term stability ([1]; QC 3.0 μg·mL^−1, 8 weeks at −70°C): 91.6 ± 11.2% | Remaining, Freeze-thaw stability ([1]; QC 3.0 μg·mL^−1, three freeze-thaw cycles): 94.7 ± 3.7% | Remaining, Short-term stability ([1]; QC 40.0 μg·mL^−1, 4°C for 4–24 h): 102.1 ± 5.7% | Remaining, Long-term stability ([1]; QC 40.0 μg·mL^−1, 8 weeks at −70°C): 95.7 ± 4.6% | Remaining, Freeze-thaw stability ([1]; QC 40.0 μg·mL^−1, three freeze-thaw cycles): 91.2 ± 10.6% | increase of P app (apical-to-basolateral) by Borneol ([2]; 200 μM Borneol, Caco-2): 2.6 fold | increase of P app (basolateral-to-apical) by Borneol ([2]; 200 μM Borneol, Caco-2): 2.6 fold | P app values ([2]; Caco-2 monolayers, without Borneol): less than 10^−6 cm/s | substrate of P-gp ([2]; concluded from efflux ratio in vinblastine-selected Caco-2 cells): seemed not to be substrates of P-gp | Kp at 1 h ([3]; brain, peak levels at 1.0 h, read-out: level in brain, fold higher than the plasma concentrations): 11.8 | concentration at 0.5 h ([3]; brain, 3 mL·kg^−1, 0.5 h, oral Panax notoginseng with Borneol, read-out: Concentration in brain): 20600 ± 1360 ng/g | concentration at 0.5 h ([3]; brain, 3 mL·kg^−1, 0.5 h, oral Panax notoginseng, read-out: Concentration in brain): 750 ± 110 ng/g | concentration at 1 h ([3]; brain, 3 mL·kg^−1, 1.0 h, oral Panax notoginseng, read-out: Concentration in brain): 910 ± 890 ng/g | concentration at 3 h ([3]; brain, oral Panax notoginseng with Borneol, read-out: Concentration in brain): 17900 ± 2600 ng/g | concentration at 3 h ([3]; brain, oral Panax notoginseng, read-out: Concentration in brain): 570 ± 200 ng/g | concentration at 1 h ([3]; brain, 1.0 h, oral Panax notoginseng with Borneol, read-out: Concentration in brain): 25700 ± 2690 ng/g | Kp at 1 h ([3]; heart, peak levels at 1.0 h, read-out: level in heart, fold higher than the plasma concentrations): 12.4 | concentration at 0.5 h ([3]; heart, 3 mL·kg^−1, 0.5 h, oral Panax notoginseng with Borneol, read-out: Concentration in heart): 22600 ± 360 ng/g | concentration at 0.5 h ([3]; heart, 3 mL·kg^−1, 0.5 h, oral Panax notoginseng, read-out: Concentration in heart): 2210 ± 760 ng/g | concentration at 1 h ([3]; heart, 3 mL·kg^−1, 1.0 h, oral Panax notoginseng, read-out: Concentration in heart): 2940 ± 240 ng/g | concentration at 3 h ([3]; heart, oral Panax notoginseng with Borneol, read-out: Concentration in heart): 19100 ± 1160 ng/g | concentration at 3 h ([3]; heart, oral Panax notoginseng, read-out: Concentration in heart): 1530 ± 450 ng/g | concentration at 1 h ([3]; heart, 1.0 h, oral Panax notoginseng with Borneol, read-out: Concentration in heart): 27000 ± 310 ng/g | Kp at 1 h ([3]; kidney, at 1.0 h, read-out: level in kidney, fold higher than the plasma concentrations): 7.77 | concentration at 0.5 h ([3]; kidney, 3 mL·kg^−1, 0.5 h, oral Panax notoginseng with Borneol, read-out: Concentration in kidney): 27540 ± 170 ng/g | concentration at 0.5 h ([3]; kidney, 3 mL·kg^−1, 0.5 h, oral Panax notoginseng, read-out: Concentration in kidney): 4050 ± 260 ng/g | concentration at 1 h ([3]; kidney, 3 mL·kg^−1, 1.0 h, oral Panax notoginseng, read-out: Concentration in kidney): 3670 ± 380 ng/g | concentration at 3 h ([3]; kidney, oral Panax notoginseng with Borneol, read-out: Concentration in kidney): 10200 ± 2770 ng/g | concentration at 3 h ([3]; kidney, oral Panax notoginseng, read-out: Concentration in kidney): 3030 ± 230 ng/g | concentration at 1 h ([3]; kidney, 1.0 h, oral Panax notoginseng with Borneol, read-out: Concentration in kidney): 16900 ± 810 ng/g | Kp at 1 h ([3]; liver, peak levels at 1.0 h, read-out: level in liver, fold higher than the plasma concentrations): 27.1 | concentration at 0.5 h ([3]; liver, 3 mL·kg^−1, 0.5 h, oral Panax notoginseng with Borneol, read-out: Concentration in liver): 50100 ± 1950 ng/g | concentration at 0.5 h ([3]; liver, 3 mL·kg^−1, 0.5 h, oral Panax notoginseng, read-out: Concentration in liver): 8480 ± 530 ng/g | concentration at 1 h ([3]; liver, 3 mL·kg^−1, 1.0 h, oral Panax notoginseng, read-out: Concentration in liver): 8850 ± 510 ng/g | concentration at 3 h ([3]; liver, oral Panax notoginseng with Borneol, read-out: Concentration in liver): 37800 ± 3430 ng/g | concentration at 3 h ([3]; liver, oral Panax notoginseng, read-out: Concentration in liver): 6180 ± 590 ng/g | concentration at 1 h ([3]; liver, 1.0 h, oral Panax notoginseng with Borneol, read-out: Concentration in liver): 59000 ± 3740 ng/g | Kp at 1 h ([3]; lung, peak levels at 1.0 h, read-out: level in lung, fold higher than the plasma concentrations): 8.17 | concentration at 0.5 h ([3]; lung, 3 mL·kg^−1, 0.5 h, oral Panax notoginseng with Borneol, read-out: Concentration in lung): 15100 ± 3240 ng/g | concentration at 0.5 h ([3]; lung, 3 mL·kg^−1, 0.5 h, oral Panax notoginseng, read-out: Concentration in lung): 14300 ± 430 ng/g | concentration at 1 h ([3]; lung, 3 mL·kg^−1, 1.0 h, oral Panax notoginseng, read-out: Concentration in lung): 15300 ± 640 ng/g | concentration at 3 h ([3]; lung, oral Panax notoginseng with Borneol, read-out: Concentration in lung): 12300 ± 1460 ng/g | concentration at 3 h ([3]; lung, oral Panax notoginseng, read-out: Concentration in lung): 11900 ± 710 ng/g | concentration at 1 h ([3]; lung, 1.0 h, oral Panax notoginseng with Borneol, read-out: Concentration in lung): 17800 ± 1250 ng/g | concentration at 0.5 h ([3]; plasma, 3 mL·kg^−1, 0.5 h, oral Panax notoginseng, read-out: Concentration in plasma): 1970 ± 160 ng/mL | concentration at 1 h ([3]; plasma, 3 mL·kg^−1, 1.0 h, oral Panax notoginseng, read-out: Concentration in plasma): 1990 ± 60 ng/mL | concentration at 3 h ([3]; plasma, oral Panax notoginseng with Borneol, read-out: Concentration in plasma): 920 ± 10 ng/mL | concentration at 3 h ([3]; plasma, oral Panax notoginseng, read-out: Concentration in plasma): 980 ± 10 ng/mL | concentration at 0.5 h ([3]; plasma, 0.5 h, oral Panax notoginseng with Borneol, read-out: Concentration in plasma): 2870 ± 60 ng/mL | concentration at 1 h ([3]; plasma, 1.0 h, oral Panax notoginseng with Borneol, read-out: Concentration in plasma): 2180 ± 90 ng/mL
